Patent US12139481B2, “Compositions comprising macrocycle derivatives incorporating bridged macrocycles and methods of producing and using same” (Southwestern Oklahoma State University, priority 2015, dated 2024)
Where two headings read alike, the source gives them in different places.

Legend:
[1] = test system: Cryptococcus neoformans ATCC 90113; experiment: Antimicrobial microdilution assay against Cryptococcus neoformans (modified CLSI/NCCLS, optical density); assay type: cell-based; conditions: for X more potent than Amphotericin B: C. neoformans, ratio of molar IC50 to Amphotericin B; for C. neoformans IC50 / IC50: in vitro, C. neoformans ATCC 90113; for IC50: read-out: C. neoformans IC50 (mol/L)
Description: Summary: Various macrocyclic derivatives constructed in accordance with the presently disclosed and/or claimed inventive concept(s) were screened in vitro against Cryptococcus neoformans ATCC 90113 using a microdilution assay. The minimum fungicidal concentration (MFC), the lowest test concentration that kills the organism, was determined in broth media.
Antimicrobial assay: Cryptococcus neoformans ATCC 90113 were obtained from the American Type Culture Collection (Manassas, VA.). The susceptibility testing was performed using a modified version of the CLSI (formerly NCCLS) methods (see below), and optical density was used to monitor growth. Samples were serially diluted in 20% DMSO/saline and transferred in duplicate to 96-well flat bottom microplates. Microbial inocula were prepared by correcting the OD630 of cell/spore suspensions in incubation broth RPMI at pH 6.0 to afford final desired target inocula. Amphotericin B (“AMB;” ICN Biomedicals, OH) was used as drug control. The organism concentration was read at 630 nm using the Biotek Powerwave XS plate reader (Bio-Tek instruments, VT) prior to and after incubation. Minimum fungicidal concentrations were determined by removing 5 μL from each clear well, transferring to agar, and incubating until growth was seen. The MFC/MBC is defined as the lowest test concentration that kids the organism (allows no growth on agar).
References for NCCLS methods referenced above: 1 NCCLS. Reference method for broth dilution antifungal susceptibility testing of yeasts, Vol. 22. Approved standard, 2nd ed. Wayne: National Committee for Clinical Laboratory Standards; 2002: 1-51. 2 NCCLS. Reference method for broth dilution antifungal susceptibility testing of conidium forming filamentous fungi, Vol. 18. Proposed standard M38-P. Wayne: National Committee for Clinical Laboratory Standards; 1998: 1-39. 3 NCCLS. Methods for dilution antimicrobial susceptibility tests for bacteria that grow aerobically, Vol. 20. NCCLS Document M7-A5. Wayne: National Committee for Clinical Laboratory Standards; 2000: 1-58.
The term “IC50” as used herein will be understood to refer to a test concentration in mol/L that affords 50% inhibition of the microbe relative to negative and positive controls. […] The abbreviation “MFC” as used herein will be understood to refer to a minimum fungicidal concentration, or the lowest test concentration in mol/L that kills the organism. All IC50s are calculated using the XLfit® fit curve fitting software (ID Business Solutions Ltd, Guildford, Surrey, UK).
General Experimental Procedures. All organisms were obtained from the American Type Culture Collection (Manassas, VA) and include the fungi Candida albicans ATCC 90028, C. glabrata ATCC 90030, C. krusei ATCC 6258, and Cryptococcus neoformans ATCC 90113, and the bacteria Staphylococcus aureus ATCC 29213 and methicillin-resistant S. aureus ATCC 33591 (MRS). All organisms were tested using modified versions of the CLSI (formerly NCCLS) methods. For all organisms, optical density was used to monitor growth (NCCLS, Reference Method for Broth Dilution Antifungal Susceptibility Testing of Yeasts; Approved Standard M27-A2. National Committee on Clinical Laboratory Standards, 2002 22 (15); and NCCLS, Methods for Dilution Antimicrobial Susceptibility Tests for Bacteria that Grow Aerobically; Approved Standard, Seventh Edition M7-A7. National Committee on Clinical Laboratory Standards, 2006. 26(2)).
Samples (dissolved in DMSO) were serially-diluted in 20% DMSO/saline and transferred (10 μL) in duplicate to 96 well flat bottom microplates.

[2] = test system: L. donovani promastigotes; experiment: Antileishmanial Alamar Blue assay on promastigotes; assay type: cell-based, Leishmania donovani; conditions: for X more potent than Pentamidine: L. donovani, ratio of molar IC50 to Pentamidine
Description: Methods: The compounds were screened in vitro against the promastigote forms of the leishmania parasites employing the Alamar Blue assay as discussed below.
Antileishmanial activity of the compounds was tested in vitro against a culture of L. donovani promastigotes, grown in RPMI 1640 medium supplemented with 10% fetal calf serum (FCS, Gibco Chem. Co., Grand Island, NY) at 26° C. A 3-day-old culture was diluted to 5×10^5 promastigotes/mL. Drug dilutions (50-3.1 μg/mL) were prepared directly in cell suspension in 96-well plates. Plates were incubated at 26° C. for 48 hours, and growth of leishmania promastigotes was determined by Alamar Blue assay. Standard fluorescence was measured on a FLUOstar® Galaxy plate reader (BMG Lab Technologies, Ortenberg, Germany) at an excitation wavelength of 544 nm and emission wavelength of 590 nm. Pentamidine and amphotericin B were used as the standard antileishmanial agents. Percent growth was calculated and plotted versus test concentration for computing the IC50 values.

[3] = promastigotes, 48 hours, Alamar Blue
[4] = promastigotes, 48 hours, Alamar Blue, read-out: L. donavani IC50

| Molecule | X more potent than Amphotericin B [1] | C. neoformans IC50 [1] [µg/mL] | IC50 [1] [µM] | X more potent than Pentamidine [2] | L. donovani IC50 [2, 3] [µg/mL] | IC50 [2, 4] [µM] | IC50 ([1]; HCl salt) [µM] | IC50 ([2]; promastigotes, 48 hours, Alamar Blue, HCl salt, read-out: L. donavani IC50) [µM] | IC50 ([2]; Leishmania donovani, 48 h, read-out: L. donavani IC50 (mol/L)) [µM] | IC50 ([2]; Leishmania donovani, promastigotes, 48 hours, Alamar Blue, read-out: L. donovani IC50) [µg/mL] | IC50 ([2]; Leishmania donovani, read-out: IC50 against L. donovani) [µM] |
| --- | --- | --- | --- | --- | --- | --- | --- | --- | --- | --- | --- |
| c1ccc(CN2CCCNCCN(Cc3ccccc3)CCCNCC2)cc1 [BME04, Bn2Cyclam] | 0.01 | 12.160 | 31.9 | 0.77 | 2.63 | 6.91 | – | – | – | – | – |
| Clc1cc(CN2CCCNCCN(Cc3cc(Cl)nc(Cl)c3)CCCNCC2)cc(Cl)n1 [DJD29, (DCP)2Cyclam] | – | – | – | 0.28 | 9.76 | 18.8 | – | – | – | – | – |
| c1cc(CN2CCCN3CCNCCCN(CC3)CC2)ccc1CN1CCCN2CCNCCCN(CC2)CC1 [JGL44, p-CB-H2Bcyclams] | 0.73 | 0.180 | 0.324 | 0.11 | 28.08 | 50.6 | – | – | – | – | – |
| Cl.Cl.Cl.Cl.Cl.Cl.Cl.Cl.c1cc(CN2CCNCCCN3CCN(CC3)CC2)ccc1CN1CCNCCCN2CCN(CC2)CC1 [OB45B, p-SB-homocyclens HCl salt] | 0.67 | 0.290 | – | 0.13 | 34.55 | – | 0.354 | 42.2 | – | – | – |
| CC(=O)[O-].Clc1cc(CN2CCNCCN3CCN(CC3)CC2)cc(Cl)n1.F[P-](F)(F)(F)(F)F.[Ni+2] [OB106, [Ni(dcp1-SB-cyclen)(OAc)]PF6] | 0.38 | 0.390 | 0.628 | 0.14 | 23.19 | 37.3 | – | – | – | – | – |
| N=C(N)c1ccc(OCCCCCOc2ccc(C(=N)N)cc2)cc1 [PENT, Pentamidine, reference compound] | – | – | – | 1.00 | – | – | – | – | 5.32 | 1.81 | 5.32 |
| CC(=O)[O-].CC(=O)[O-].CC(=O)[O-].CC(=O)[O-].O=[N+]([O-])c1ccc(CC2CNCCN(Cc3ccc(CN4CCCN5CCN(CCCNCC4)CC5)cc3)CCCN3CCN(CC3)C2)cc1.[Zn+2].[Zn+2] (stereo not shown) [SJA235, [Zn2(bis-SB-C-Ar-NO2)(OAc)4]] | 0.13 | 1.930 | – | 0.16 | 34.77 | – | – | – | – | – | – |
| CC(=O)[O-].F[P-](F)(F)(F)(F)F.[Zn+2].c1ccc(CN2CCCNCCN(Cc3ccccc3)CCCNCC2)cc1 [SLK07B, [Zn(Bn2Cyclam)(OAc)]PF6] | 0.01 | 19.840 | – | 1.16 | 2.97 | – | – | – | – | – | – |
| O.[Cl-].[Cl-].[Mn+2].c1ccc(CN2CCCNCCN(Cc3ccccc3)CCCNCC2)cc1 [TJH397A, Mn(Bn2Cyclam)Cl2•H2O] | 0.01 | 16.870 | 32.2 | 1.21 | 2.31 | 4.41 | – | – | – | – | – |
| [Cl][Mn-2]([Cl])([Cl])[Cl].[Cl][Mn-2]([Cl])([Cl])[Cl].[Mn+2].[Mn+2].c1cc(CN2CCCN3CCNCCCN(CC3)CC2)ccc1CN1CCCN2CCNCCCN(CC2)CC1 [TJH412, [Mn2(H2-p-CB-cyclams)][MnCl4]2] | 0.13 | 1.990 | 1.88 | 0.17 | 33.37 | 31.5 | – | – | – | – | – |
| CC(=O)[O-].CC(=O)[O-].F[P-](F)(F)(F)(F)F.F[P-](F)(F)(F)(F)F.O.[Zn+2].[Zn+2].c1cc(CN2CCCN3CCNCCCN(CC3)CC2)ccc1CN1CCCN2CCNCCCN(CC2)CC1 [TJH417B, [Zn2(H2-p-CB-cyclams)(OAc)2][PF6]2•H2O] | 0.08 | 3.120 | – | 0.17 | 34.93 | – | – | – | – | – | – |
| Fe(Bn2Cyclam)Cl2•0.5 H2O [TJH398A] | – | – | – | 1.20 | 2.28 | 4.42 | – | – | – | – | – |
| [Co2(m-CB-Homocyclens)(OAc)2.6][PF6]1.4 [CDG036] | 0.08 | 3.040 | 2.95 | 0.25 | 22.23 | 21.6 | – | – | – | – | – |
| [Cu2(m-CB-Homocyclens)(OAc)2.5][PF6]1.5 [CDG035] | 0.08 | 3.260 | 3.11 | 0.21 | 26.37 | 25.2 | – | – | – | – | – |
| [Ni3(tris-CB-Cyclams)(OAc)3][PF6]3•2.5H2O [BNS23] | 0.03 | 12.110 | 7.26 | 0.28 | 31.63 | 19 | – | – | – | – | – |
| [Zn2(m-CB-Homocyclens)(OAc)0.5][PF6]3.5 [CDG037] | 0.18 | 1.620 | 1.32 | – | – | – | – | – | – | – | – |
| [Zn2(m-SB-cyclam-cyclen)(OAc)2][PF6]2•3.3H2O [CMB035] | 0.33 | ≤ 0.800 | 0.711 | – | – | – | – | – | – | – | – |
| [Zn(H2PBCyclam)(OAc)]PF6•2.5NH4PF6 [SLK41] | 0.04 | 5.190 | 5.66 | – | – | – | – | – | – | – | – |
| [Zn(Me1-SB-Cyclam)(C2H3O2)]PF6 [DLM32] | 0.01 | 17.280 | 33.9 | – | – | – | – | – | – | – | – |
| [Zn(Me1Pic1-CB-cyclen)](PF6)2 [KRW49] | 0.03 | 5.230 | 7.53 | – | – | – | – | – | – | – | – |
| [Zn(dcp1-SB-cyclen)(OAc)]PF6 [OB110A] | 0.30 | 0.610 | 0.805 | 0.11 | 38.32 | 50.6 | – | – | – | – | – |
| m-CB-cyclam-cyclen [DGJ036] | 0.02 | 5.800 | 10.5 | – | – | – | – | – | – | – | – |
| p-CB-cyclam-cyclen [CMB008D] | 0.17 | ≤ 0.800 | 1.44 | 0.08 | 38.75 | 69.8 | – | – | – | – | – |
| p-SB-cyclens HCl salt [OB24B] | 0.31 | 0.670 | 0.776 | 0.14 | 32.40 | 37.5 | – | – | – | – | – |
